≈ marks a conversion by molar mass, not a printed value. Where two headings read alike, the source gives them in different places. Numbered stars: 1 amine (or outer) side, 2 acyl side, 3 side chain; on linkers, the order of the positions; unused ones are H or OH. Bridge positions count the residues as written; N and C are the ends. Square brackets hold non-standard residues; d marks the D form. Peptide text beside a SMILES is read from it. * marks the point of attachment. Phe(3-CF3) = N[C@@H](Cc1cccc(C(F)(F)F)c1)C(=O)O; Piperazine(2S-CO,4-Me) = CN1CCN[C@H](C(=O)O)C1; NH(1,3-benzodioxol-5-yl) = c1cc2c(cc1N*)OCO2; Phe(3-Me) = Cc1cccc(C[C@H](N)C(=O)O)c1; NH(4-Cl-2-F-phenyl) = Fc1cc(Cl)ccc1N*; Pro(4R-Me) = C[C@H]1CN[C@H](C(=O)O)C1; NH(4-Et-phenyl) = CCc1ccc(N*)cc1; NH(4-Me-phenyl) = Cc1ccc(N*)cc1; CO = O=C([*:1])[*:2]
Tests used:
[1] = target: T1, Sa-ClpP (Staphylococcus aureus, UniProt Q2G036); assay: ADEP displacement fluorescence polarization assay; assay type: binding, S. aureus; details: displacement of FP probe ADEP 2591 from Sa-ClpP
T1 construct: made in house; host or cells: E. coli BL21 (DE3)
Procedure: A fluorescence polarization (FP) assay was used to determine the activity of the disclosed compounds in displacing an ADEP analogue from ClpP. Briefly, the assay was performed in black 384 well, flat bottom, low volume plates (Greiner Bio-One, Monroe, N.C., catalog #784076). 20 μL of a pre-equilibrated (1 hr, room temperature) master mix (15 μM Sa-ClpP, 2% DMSO (v/v) and 50 nM FP probe in TrisHCl, pH 8.0)) was pipetted into each well using a Well-Mate (Thermo Scientific, Waltham, Mass.). Sa-ClpP was prepared as described above for the ClpP activation assay. The FP probe was ADEP 2591 (structure shown above). The ADEP 2591 comprises a TAMRA fluorophore linked to a core based on modified ADEP 2378 via a short alkyl linker. Using pin transfer, approximately 0.4 μL (2% v/v DMSO) of each compound or control was added per well. After addition of compounds and controls, plates were allowed to incubate for an additional 120 minutes at room temperature. All assays were performed in triplicate. Polarization was monitored using an EnVision Multilabel reader (Perkin-Elmer, Waltham, Mass.) by exciting the FP probe at 530±25 nm, and monitoring fluorescence intensity of both parallel and perpendicular polarized light at 579±25 nm. Readout was in millipolarization units (mP).
Signal gain and G factors were determined in wells containing 200 μM ADEP 2378, which had been previously verified (data not shown) as containing completely unbound ADEP 2591. Data collected was normalized to values obtained from positive (200 μM ADEP 2378) or negative (DMSO) controls. Curves were fit with non-linear regression using the equation “log [inhibitor] vs. Response-variable slope (four parameters)-symmetrical” in the program Prism 6 (GraphPad Software, La Jolla, Calif. USA, www.graphpad.com). The structures for ADEP 2378 and ADEP 2591 are shown above. ADEP 2378 is (E)-N—((S)-1-(((2R,6S,8aS,14aS,20S,23aS)-2,6-dimethyl-5,8,14,19,23-pentaoxooctadecahydro-1H,5H,14H,19H-pyrido[2,1-i]dipyrrolo[2,1-c:2′,1′-1][1]oxa[4,7,10,13]tetraazacyclohexadecin-20-yl)amino)-1-oxo-3-phenylpropan-2-yl)pent-2-enamide. ADEP 2591 is 5-(3-(3-((6S,9S,11aS,17S,20aS)-6,10-dimethyl-5,8,11,16,20-pentaoxo-17-((S)-2-((E)-pent-2-enamido)-3-phenylpropanamido)hexadecahydro-1H,5H,16H-dipyrrolo[2,1-c:2′,1′-1][1]oxa[4,7,10,13]tetraazacyclohexadecin-9-yl)propyl)thioureido)-2-(6-(dimethylamino)-3-(dimethyliminio)-3H-xanthen-9-yl)benzoate.

[2] = system: E. faecails; assay: Minimal inhibitory concentration, microbroth dilution; assay type: cell-based; details: Enterococcus faecalis
How it was run: (§1)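 Susceptibility testing used the CLSI dilution standard, with bacteria at ~10^5 cfu/mL exposed to a two-fold compound series beginning at 200 μM final. The endpoint is the lowest concentration showing no growth after overnight incubation (37 °C, aerobic).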

[3] = system: MRSA NRS70; assay: as above; assay type: cell-based; details: Staphylococcus aureus
How it was run: as §1

[4] = system: S. aureus ATCC 29213; assay: as above; assay type: cell-based; details: Staphylococcus aureus
How it was run: as §1

[5] = system: S. aureus USA 300; assay: as above; assay type: cell-based; details: Staphylococcus aureus
How it was run: as §1

[6] = Microsomal metabolic stability; assay type: in vitro ADME, mouse
How it was run: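 CD-1 mouse liver microsomes (0.6381 mg/mL protein microsomal solution, 0.1 M potassium phosphate pH 7.4 with EDTA) were incubated with compound and an NADPH-regenerating system at 37 °C, in triplicate. Acetonitrile/warfarin quench at 0, 15, 30, 60, 120 and 240 min, then LCMS. Half-life came from a first-order least-squares fit.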

[7] = MIC, read-out: Minimal Inhibitory Concentrations (μM) E. faecails
[8] = MIC, read-out: Minimal Inhibitory Concentrations (μM) MRSA NRS70
[9] = ATCC29213, MIC, read-out: Minimal Inhibitory Concentrations (μM) S. aureus ATCC 29213
[10] = USA300, MIC, read-out: Minimal Inhibitory Concentrations (μM) S. aureus USA 300

T1 sequence (Q2G036 whole entry): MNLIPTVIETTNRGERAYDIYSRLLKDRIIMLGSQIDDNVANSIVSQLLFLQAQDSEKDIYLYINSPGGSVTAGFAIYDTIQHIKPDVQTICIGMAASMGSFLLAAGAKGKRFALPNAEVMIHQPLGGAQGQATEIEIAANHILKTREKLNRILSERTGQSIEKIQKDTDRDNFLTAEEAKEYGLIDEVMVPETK

Structure (SMILES)	IC50 [1] [µM]	MIC ([2]; read-out: Minimal Inhibitory Concentrations (μM) E. faecails, MIC) [µM]	MIC ([3]; read-out: Minimal Inhibitory Concentrations (μM) MRSA NRS70, MIC) [µM]	MIC ([4]; ATCC29213, read-out: Minimal Inhibitory Concentrations (μM) S. aureus ATCC 29213, MIC) [µM]	MIC ([5]; USA300, read-out: Minimal Inhibitory Concentrations (μM) S. aureus USA 300, MIC) [µM]	Mouse ([6]; microsomal metabolic stability half-life, mouse liver microsomes) [h]	MIC [2, 7] [µM]	MIC [3, 8] [µM]	MIC [4, 9] [µM]	MIC [5, 10] [µM]	Mouse ([6]; CD-1, mouse, pH 7.4) [h]
Cc1ccc(NC(=O)N[C@@H](Cc2cccc(C)c2)C(=O)N[C@H]2COC(=O)[C@@H]3C[C@@H](C)CN3C(=O)[C@H](C)NC(=O)[C@@H]3CN(C)CCN3C(=O)[C@@H]3CCCN3C2=O)cc1 [Compound 15, (S)-3-(M-TOLYL)-2-(3-(P-TOLYL)UREIDO)-N-((6AS,12S,15AS,17R,21S,23AS)-2,17,21-TRIMETHYL-6,11,15,20,23-PENTAOXOOCTADECAHYDRO-2H,6H,11H,15H-PYRAZINO[2,1-I]DIPYRROLO[2,1-C:2′,1′-L][1]OXA[4,7,10,13]TETRAAZACYCLOHEXADECIN-12-YL)PROPANAMIDE] ({NH(4-Me-phenyl)-CO}-[Phe(3-Me)]SP[Piperazine(2S-CO,4-Me)]A[Pro(4R-Me)]; ester 2-C)	8.12 ± 0.2	1.25 (≈ 0.984 µg/mL)	2.5 (≈ 1.97 µg/mL)	2.5 (≈ 1.97 µg/mL)	5 (≈ 3.93 µg/mL)	2.28 ± 0.16					
CCc1ccc(NC(=O)N[C@@H](Cc2cccc(C)c2)C(=O)N[C@H]2COC(=O)[C@@H]3C[C@@H](C)CN3C(=O)[C@H](C)NC(=O)[C@@H]3CN(C)CCN3C(=O)[C@@H]3CCCN3C2=O)cc1 [Compound 16, (S)-2-(3-(4-ETHYLPHENYL)UREIDO)-3-(M-TOLYL)-N-((6AS,12S,15AS,17R,21S,23AS)-2,17,21-TRIMETHYL-6,11,15,20,23-PENTAOXOOCTADECAHYDRO-2H,6H,11H,15H-PYRAZINO[2,1-I]DIPYRROLO[2,1-C:2′,1′-L][1]OXA[4,7,10,13]TETRAAZACYCLOHEXADECIN-12-YL)PROPANAMIDE] ({NH(4-Et-phenyl)-CO}-[Phe(3-Me)]SP[Piperazine(2S-CO,4-Me)]A[Pro(4R-Me)]; ester 2-C)	5.46 ± 0.2						0.156 (≈ 0.125 µg/mL)	0.313 (≈ 0.251 µg/mL)	1.25 (≈ 1 µg/mL)	0.625 (≈ 0.501 µg/mL)	1.80 ± 0.09
Cc1cccc(C[C@H](NC(=O)Nc2ccc3c(c2)OCO3)C(=O)N[C@H]2COC(=O)[C@@H]3C[C@@H](C)CN3C(=O)[C@H](C)NC(=O)[C@@H]3CN(C)CCN3C(=O)[C@@H]3CCCN3C2=O)c1 [Compound 17, (S)-2-(3-(BENZO[D][1,3]DIOXOL-5-YL)UREIDO)-3-(M-TOLYL)-N-((6AS,12S,15AS,17R,21S,23AS)-2,17,21-TRIMETHYL-6,11,15,20,23-PENTAOXOOCTADECAHYDRO-2H,6H,11H,15H-PYRAZINO[2,1-I]DIPYRROLO[2,1-C:2′,1′-L][1]OXA[4,7,10,13]TETRAAZACYCLOHEXADECIN-12-YL)PROPANAMIDE] ({NH(1,3-benzodioxol-5-yl)-CO}-[Phe(3-Me)]SP[Piperazine(2S-CO,4-Me)]A[Pro(4R-Me)]; ester 2-C)	6.02 ± 0.2						1.25 (≈ 1.02 µg/mL)	5 (≈ 4.08 µg/mL)	20 (≈ 16.3 µg/mL)	10 (≈ 8.17 µg/mL)	4.83 ± 0.46
C[C@@H]1C[C@H]2C(=O)OC[C@H](NC(=O)[C@H](Cc3cccc(C(F)(F)F)c3)NC(=O)Nc3ccc(Cl)cc3F)C(=O)N3CCC[C@H]3C(=O)N3CCN(C)C[C@H]3C(=O)N[C@@H](C)C(=O)N2C1 [Compound 18, (S)-2-(3-(4-CHLORO-2-FLUOROPHENYL)UREIDO)-3-(3-(TRIFLUOROMETHYL)PHENYL)-N-((6AS,12S,15AS,17R,21S,23AS)-2,17,21-TRIMETHYL-6,11,15,20,23-PENTAOXOOCTADECAHYDRO-2H,6H,11H,15H-PYRAZINO[2,1-I]DIPYRROLO[2,1-C:2′,1′-L][1]OXA[4,7,10,13]TETRAAZACYCLOHEXADECIN-12-YL)PROPANAMIDE] ({NH(4-Cl-2-F-phenyl)-CO}-[Phe(3-CF3)]SP[Piperazine(2S-CO,4-Me)]A[Pro(4R-Me)]; ester 2-C)	4.79 ± 0.27						0.313 (≈ 0.275 µg/mL)	5 (≈ 4.4 µg/mL)	10 (≈ 8.79 µg/mL)	10 (≈ 8.79 µg/mL)	1.88 ± 0.12

Reference: patent US10570179B2, “Substituted urea depsipeptide analogs as activators of the CLPP endopeptidase” (priority 2016, dated 2020)
